Earlier results on 2 compounds are cited in US20220401378A1, “COMPOSITIONS COMPRISING FUNCTIONAL FRAGRANCES AND CANNABIS-DERIVED COMPOUNDS” (THIS WORKS PRODUCTS LIMITED, priority 2020, published 2022).

Structures are written as SMILES.

The data set concerns anxiety.

With `C=C[C@](C)(O)CCC=C(C)C` [R-(−)-linalool], the “effectiveness in reducing anxiety compared with trazodone hydrochloride” value is on record as “as effective as the trazodone hydrochloride in reducing anxiety”.

`C=C[C@@](C)(O)CCC=C(C)C` [S-(+)-linalool]: the “effectiveness in reducing anxiety compared with trazodone hydrochloride” value is listed as “as effective as the trazodone hydrochloride in reducing anxiety”.
